Molecular target: T1, TAPL Y405A mutant (Mus musculus, UniProt Q9JJ59, Y405A)
T1 construct: thrombin cleavage site (C); eGFP (C); 10XHis (C); made in house; host or cells: Trichoplusia ni High Five (Hi5) insect cells, baculovirus (pVL1393)
T1 sequence (Q9JJ59 143-762 Y405A): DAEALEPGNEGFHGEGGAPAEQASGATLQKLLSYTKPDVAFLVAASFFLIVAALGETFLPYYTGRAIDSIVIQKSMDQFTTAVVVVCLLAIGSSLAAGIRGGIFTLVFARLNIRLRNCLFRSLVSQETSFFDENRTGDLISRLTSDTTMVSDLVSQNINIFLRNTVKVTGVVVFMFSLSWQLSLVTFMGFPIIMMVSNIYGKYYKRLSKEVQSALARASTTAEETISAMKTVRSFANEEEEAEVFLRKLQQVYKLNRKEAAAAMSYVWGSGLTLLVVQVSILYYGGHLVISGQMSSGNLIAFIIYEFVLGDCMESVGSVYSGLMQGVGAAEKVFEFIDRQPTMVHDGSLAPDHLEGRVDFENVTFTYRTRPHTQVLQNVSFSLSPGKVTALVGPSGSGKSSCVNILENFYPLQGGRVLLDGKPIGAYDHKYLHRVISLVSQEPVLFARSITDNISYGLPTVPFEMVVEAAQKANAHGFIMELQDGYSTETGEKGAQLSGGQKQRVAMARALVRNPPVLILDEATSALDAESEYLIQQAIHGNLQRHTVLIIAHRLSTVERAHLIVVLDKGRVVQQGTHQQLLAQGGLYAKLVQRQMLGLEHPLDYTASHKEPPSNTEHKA
Assay: Dithionite-based flip-flop assay, Y405A proteoliposomes
Type: biochemical
Protocol: All lipids used in reconstitution were purchased from Avanti Polar Lipids, Inc. (purity > 99%). The in vitro flip–flop assay was performed using NBD* dye-labeled proteoliposomes as described previously. Briefly, E. coli polar lipids and egg PC were mixed in a 1:1 molar ratio, and 0.5% (mol/mol) NBD*-lipid was added. The lipid mixture was then dried under nitrogen gas. The NBD*-lipids used were 18:1-06:0 NBD*-PS (1-oleoyl-2-{6-[(7-nitro-2-1,3-benzoxadiazol-4-yl)amino]hexanoyl}-sn-glycero-3-phosphoserine), 18:1-06:0 NBD*-PC (1-oleoyl-2-{6-[(7-nitro-2-1,3-benzoxadiazol-4-yl)amino]hexanoyl}-sn-glycero-3-phosphocholine), 18:1-06:0 NBD*-PG (1-oleoyl-2-{6-[(7-nitro-2-1,3-benzoxadiazol-4-yl)amino]hexanoyl}-sn-glycero-3-[phospho-rac-(1-glycerol)]), 18:1-06:0 NBD*-PE (1-oleoyl-2-{6-[(7-nitro-2-1,3-benzoxadiazol-4-yl)amino]hexanoyl}-sn-glycero-3-phosphoethanolamine), and 25-NBD*-Cholesterol (25-[N-[(7-nitro-2-1,3-benzoxadiazol-4-yl)methyl]amino]−27-norcholesterol). Thin lipid films were solubilized in 20 mM HEPES–NaOH pH 8.0, 200 mM NaCl and 5% (v/v) glycerol, incubated at RT for 30 min and subjected to 5 freeze–thaw cycles. After extrusion with a Mini-Extruder at 65 °C, final lipid concentrations were determined by phosphorus assays. Briefly, 10 μL of extruded lipid was added to 10 μL of 2% (w/v) ammonium molybdate and 300 μL of concentrated perchloric acid. […] Lipid concentrations were calculated from the absorbance at 820 nm using a standard curve prepared with NaH2PO4 solution. […]
To measure the flip–flop activity, 10 μL of 2 mM NBD*-labeled proteoliposomes were added to 100 μL of reaction buffer (20 mM HEPES–NaOH pH 8.0, 200 mM NaCl, 5 mM ATP and 5% (v/v) glycerol) in the presence of 2 mM MgCl2 (or NaCl), and incubated at 37 °C for 1 h. The mixture was transferred to a 96-well plate and time-dependent fluorescence (λex/λem = 460/538 nm) was recorded every 30 s for 26 min using a fluorescence spectrophotometer (Gemini XPS). After the baseline fluorescence had stabilized, 10 mM sodium dithionite was added to quench the fluorescence of NBD*-lipid present in the outer leaflets of the liposomes. The initial rapid drop and subsequent slow decline in fluorescence intensity were monitored. […] The net percentage of NBD*-lipid translocated across the lipid bilayer was calculated from the following equation[72]: the percentage of protected NBD*-lipid in the inner leaflet = [(FD−F0)/(FT−F0)]×100, and that of accessible NBD*-lipid in the outer leaflet = [(FT−FD)/(FT−F0)]×100, where FT is the total fluorescence of the sample before the addition of dithionite, FD is the fluorescence of the sample after quenching with dithionite, and F0 is any residual fluorescence of the sample after solubilization with Triton X-100. […]

SMILES: CCCCCCCC/C=C\CCCCCCCC(=O)OC[C@H](COP(=O)(O)OC[C@H](N)C(=O)O)OC(=O)CCCCCNc1ccc([N+](=O)[O-])c2nonc12 [NBD*-PS, 1-oleoyl-2-{6-[(7-nitro-2-1,3-benzoxadiazol-4-yl)amino]hexanoyl}-sn-glycero-3-phosphoserine]
- NBD*-PS fluorescence intensity (net percentage transported outer to inner leaflet) (Mg2+/ATP minus Na+/ATP, mean n=3): 1.556%
- NBD*-PS fluorescence intensity (net percentage transported) (replicate I): 1.636%
- NBD*-PS fluorescence intensity (net percentage transported) (replicate II): 1.459%
- NBD*-PS fluorescence intensity (net percentage transported) (replicate III): 1.571%

Source: publication PMC9532399, “The lysosomal transporter TAPL has a dual role as peptide translocator and phosphatidylserine floppase” (Nature Communications, 2022)
